Experimental data from patent US8334272B2, “Methods for nucleic acid transfer into cells” (Northwestern University, priority 2007, dated 2012).
“Also recorded” adds a separate entry of the source.

What was measured:
A549 cells = test: Luciferase expression after electroporation of pCMV-Lux-DTS plasmid (transfection efficiency); assay type: cell-based, human; details: for exogenous gene expression (luciferase) versus vehicle control: A549, 24 hours after electroporation and 25 hours after drug treatment; for luciferase expression versus DMSO (vehicle) treated or wild type cells: A549, 3 hours after electroporation, 1 μM TSA, 3 mM 17b, 1 mM 17-AAG, 10 nM okadaic acid; for exogenous gene expression as measured by luciferase expression over appropriate control (FIG. 4): A549 cell cultures
Protocol: Human adenocarcinoma A549 cells (ATCC, #CCL-185, Rockville, Md.) were grown in DMEM supplemented with 10% fetal bovine serum (FBS). A stable line of A549 cells expressing firefly luciferase was constructed by transfection of cells with plasmid pGL4.14[luc2/Hygro] (Promega, Madison, Wis.) and selection with hygromycin. Colonies were pooled and passaged under selection. HIF-1 and HIF-2 knockdowns were created in A549 cells using retroviral methods with the PT67 packaging cell line (Clontech, Mountain View, Calif.). PT67 cells were transfected with 10 to 15 μg of specific shRNA-expressing or empty plasmids using lipofectin (Invitrogen, Carlsbad, Calif.) according to the manufacturer's protocol. Virus-containing medium was supplemented with 8 μg/ml of polybrene (Sigma, St. Louis, Mo.) for infection. Stable HDAC6 knockdown or stable HDAC6 overexpressing A549 cells were a generous gift from T. P. Yao (Duke University). For electroporations, cells were grown to confluency in […] dishes, and rinsed twice in serum- and antibiotic-free media. Five micrograms of plasmids in 500 µl of serum and antibiotic-free DMEM were added to each well and one […] square wave electric pulse was applied using a PetriPulser electrode (BTX, San Diego, Calif.). […] Drugs were used at the following final concentrations: 1 μM TSA, 1 mM Sodium Butyrate, […], 3 mM 17B, 1 mM 17-AAG, and 10 nM Okadaic Acid. […] All luciferase measurements were normalized to total cell protein and reported as fold-increases in expression over DMSO (vehicle-treated). All experiments were performed in triplicate wells and the experiments were repeated at least three times. For statistical analyses, student's t-tests were used. Cells grown on etched coverslips were microinjected as previously described. At least 100 cells were injected for each condition and experiments were repeated three times.
Plasmid pCMV-lux-DTS expresses luciferase from the CMV immediate early promoter and contains the SV40 DNA nuclear targeting sequence downstream of the reporter gene. All plasmids were purified from E. coli using Qiagen Gigaprep kits as described by the manufacturer (Qiagen, Chatsworth, Calif.). Plasmid pDD306, expressing GFP from the CMV promoter and which contains the GeneGrip1 PNA binding site (Gene Therapy Systems, San Diego, Calif.) was labeled with Cy3-labeled PNA as described. Briefly, plasmids were labeled with Cy3-PNA in the manufacturer's labeling buffer at 37° C. for 2 hours followed by isopropanol precipitation to remove unbound Cy3-PNA. Plasmid labeling was verified by agarose gel electrophoresis and fluorescent detection in the absence of ethidium bromide.

HDAC6 = target: T1, HDAC6 (Homo sapiens, UniProt Q9UBN7); details: sodium butyrate 1 mM, Trichostatin A 1 μM where stated; cited from earlier work
T1 sequence (Q9UBN7 1-1215): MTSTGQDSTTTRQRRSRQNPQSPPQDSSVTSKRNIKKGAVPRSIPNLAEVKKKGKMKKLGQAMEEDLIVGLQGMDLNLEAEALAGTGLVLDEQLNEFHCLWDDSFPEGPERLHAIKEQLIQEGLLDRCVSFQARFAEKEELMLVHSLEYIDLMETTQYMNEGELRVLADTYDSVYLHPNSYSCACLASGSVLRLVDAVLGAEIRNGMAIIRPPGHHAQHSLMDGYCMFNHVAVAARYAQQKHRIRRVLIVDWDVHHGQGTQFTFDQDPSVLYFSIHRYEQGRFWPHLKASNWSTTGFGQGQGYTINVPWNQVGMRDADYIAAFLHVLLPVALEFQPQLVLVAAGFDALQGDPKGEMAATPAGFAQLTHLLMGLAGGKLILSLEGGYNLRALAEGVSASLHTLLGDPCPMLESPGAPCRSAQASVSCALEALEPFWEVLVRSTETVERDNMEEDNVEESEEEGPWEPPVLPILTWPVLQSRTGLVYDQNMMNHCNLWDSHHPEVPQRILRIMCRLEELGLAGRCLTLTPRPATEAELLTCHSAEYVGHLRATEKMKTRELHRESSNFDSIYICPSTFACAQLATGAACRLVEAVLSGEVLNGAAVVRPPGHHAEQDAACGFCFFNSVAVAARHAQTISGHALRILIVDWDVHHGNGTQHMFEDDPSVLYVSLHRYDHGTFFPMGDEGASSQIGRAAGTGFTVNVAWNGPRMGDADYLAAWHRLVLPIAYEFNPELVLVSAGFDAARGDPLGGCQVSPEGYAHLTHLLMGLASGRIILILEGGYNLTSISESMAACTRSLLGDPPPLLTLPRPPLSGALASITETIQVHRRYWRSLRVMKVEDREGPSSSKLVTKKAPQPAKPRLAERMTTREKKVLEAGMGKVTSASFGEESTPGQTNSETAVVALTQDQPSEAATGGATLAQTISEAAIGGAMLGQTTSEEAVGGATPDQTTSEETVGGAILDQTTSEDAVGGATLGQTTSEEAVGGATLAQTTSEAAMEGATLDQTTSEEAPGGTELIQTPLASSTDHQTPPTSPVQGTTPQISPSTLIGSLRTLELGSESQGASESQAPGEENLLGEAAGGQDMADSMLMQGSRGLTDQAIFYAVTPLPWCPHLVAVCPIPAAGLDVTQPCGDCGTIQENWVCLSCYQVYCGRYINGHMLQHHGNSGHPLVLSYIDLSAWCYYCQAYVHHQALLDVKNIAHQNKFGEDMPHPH

acetylated tubulin = test: Total and acetylated tubulin by immunofluorescence and Western blot; assay type: cell-based, human; set-up: level of microtubules (polymerized tubulin) / acetylated microtubules after treatment: dose or concentration left out as unconfirmed; details: for microtubule (tubulin) acetylation: cell cultures, immunofluorescence, versus treatment controls
Protocol: Prior to collection, samples were washed once in PBS (37° C.), and stabilized in two 15 minute washes in microtubule stabilization buffer (0.1M PIPES, pH 6.75, 1 mM EGTA, 1 mM MgSO4, 2 M glycerol, protease inhibitors). Cells were then lysed in microtubule lysis buffer (25 mM Tris-HCl, pH 7.4, 0.4 M NaCl and 0.5% SDS). All extracted samples were mixed with SDS-PAGE sample buffer (112.5 mM Tris-HCl, pH 6.8, 10%-mercaptoethanol, 3.6% SDS, 1.8% glycerol, 0.001% bromophenol blue) such that equal amounts of total protein were loaded for each fraction. The samples were boiled for 3 min and separated by 12% SDS-PAGE gels according to the methods previously described by Lugtenberg. Proteins were transferred to nitrocellulose and probed using anti-acetylated (1:1000, Sigma) or anti-tubulin (1:1000, Sigma) in PBS with 5% fat-free powdered milk. Blots were developed with a chemiluminescence detection kit, and autoradiograms were digitized before densitometry using ImageJ (NIH, Bethesda, Md.). All samples were run in duplicate and were from at least three independent experiments. After all treatment regimes, cells were washed with PBS followed by a 10 minute incubation in fixation/permeabilization buffer (60 mM PIPES, 25 mM HEPES, 10 mM EGTA, 3 mM MgCl2, 0.2% Triton X-100, and 3.7% paraformaldehyde). Cells were then washed in PBS and blocked for 1 hour in PBS containing 1 mg/ml BSA. After blocking, the cells were incubated for 1 hour with the appropriate primary antibody in PBS with 0.1 mg/ml BSA, washed in PBS, and reacted for 30 minutes with Alexa 488 or 555 conjugated secondary antibody (1:200, Molecular Probes, Eugene, Oreg.) in PBS with 0.1% BSA. Following a second set of washes in PBS, the silastic membranes were excised from the culture plates, placed face up on a microscope slide, and covered with a coverslip. All images were acquired in OpenLab (Improvision, Lexington, Mass.) with a Hamamatsu Orca II-ER camera attached to Leica DRMX-2 upright fluorescent microscope using a 100× oil-immersion objective.

[1] = system: cytoplasmic HDACs (HDAC6); details: A549 cytoplasmic extracts
Protocol: HDAC6 Activity measurements. Cytoplasmic lysates were prepared as previously described to separate HDAC6 from nuclear HDAC activity (36). Cells were then probed for HDAC activity using a fluorescent HDAC activity kit (BioMol International LP, Plymouth Meeting, Pa.). At various times during the development of the assay, the reagents were quenched, allowing for a determination of the relative activity of the cytoplasmic HDACs.

Row | SMILES | exogenous gene expression (luciferase) versus vehicle control (A549 cells) | microtubule (tubulin) acetylation (acetylated tubulin) | luciferase expression versus DMSO (vehicle) treated or wild type cells (A549 cells) | exogenous gene expression as measured by luciferase expression over appropriate control (FIG. 4) (A549 cells) | further results
1 | CCCC(=O)[O-].[Na+] [sodium butyrate] | significant increases | not and not observed |  |  | HDAC inhibition selectivity (HDAC6): does not inhibit HDAC6; also recorded: inhibits all HDACs except for HDAC6
2 | COC(=O)Nc1nc2ccc(C(=O)c3cccs3)cc2[nH]1 [nocodazole] |  |  |  |  | acetylated microtubules after treatment (acetylated tubulin; A549, Nocodazole, 3 hours): still remained; level of microtubules (polymerized tubulin) (acetylated tubulin; A549, Nocodazole, 3 hours): greatly diminished
3 | C=C1[C@@H](O)[C@@H]2O[C@]3(CC[C@H](/C=C/[C@@H](C)[C@@H]4CC(C)=C[C@@]5(O[C@H](C[C@@](C)(O)C(=O)O)CC[C@H]5O)O4)O3)CC[C@H]2O[C@@H]1[C@@H](O)C[C@H](C)[C@H]1O[C@@]2(CCCCO2)CC[C@H]1C [okadiac acid, Okadaic Acid] |  |  | did not result the increase in expression |  | 
4 | CC(/C=C/C(=O)NO)=C\[C@@H](C)C(=O)c1ccc(N(C)C)cc1 [TSA, trichostatin A] | significant increases | significant microtubule acetylation | slight but significant increase | increased | higher increase in expression than sodium butyrate (A549 cells; A549, 24 hours after electroporation, 25 hours after drug): ~10 fold; cytoplasmic HDAC activity in the assay [1]: quenched; microtubule (tubulin) acetylation (acetylated tubulin; listed as trichostatin A): increased
5 | O=C(CCCCCCC(=O)Nc1ccc([C@H]2O[C@@H](CSc3nc(-c4ccccc4)c(-c4ccccc4)o3)C[C@@H](c3ccc(CO)cc3)O2)cc1)NO [Tubacin, tubacin] |  |  |  | increased | exogenous gene expression as measured by luciferase expression over appropriate control (FIG. 4) (A549 cells; listed as tubacin): greatly increased
6 | C=CCNC1=C2C[C@@H](C)C[C@H](OC)[C@H](O)[C@@H](C)/C=C(\C)[C@H](OC(N)=O)[C@@H](OC)/C=C\C=C(/C)C(=O)NC(=CC1=O)C2=O [17-AAG] |  |  | no increase in expression; also recorded: dampened |  | 
